System: K562 nude mice transplanted tumor
Assay: Inhibition of growth of K562 nude mice transplanted tumor (pre-trial, experiment 1, experiment 2)
Format: in vivo, Balb/c nude mice
Details: cyclophosphamide 10 ml/kg intraperitoneal; for tumor sizes: n=6; for inhibition ratio: of tumor mass
Text: 2.4 K562 cell: primary K562 cell is derived from bone marrow of a patient having leukemia, introduced by Blood Research Institute from abroad, stored and passaged in Pathologic Cell Bank; cultured in RPMI1640 medium (comprising 10% fetal bovine serum).
2.6 experimental animal: Balb/c nude mice, 4~5 weeks old, weight: 17~20 g, gender: half male and half female. Experimental Animal Institute of the Chinese Academy of Medical Sciences, certification number of experimental animals: SCXK (JING) 2005-0013.
3.1.1 Balb/c nude mice were subjected to 3.0Gy whole-body irradiation, after subcutaneous inoculation of primary K562 cells. About 4 weeks after inoculation, tumor masses in growing were removed and transplanted into […], and this process was repeated for 2~3 passages to establish high oncogenic K562 cell line.
3.1.2 Nude mice were subjected to 3.0Gy whole-body irradiation, after subcutaneous inoculation of the K562 cells. One week after inoculation, nude mice with visible tumors were divided into the following 4 groups each consisting of 6 animals. The following dosages were administered for 3 continuous weeks, with 7 doses per week, a total of 21 doses.
Model control group: intraperitoneal injection of 20% aqueous solution of excipient at 0.2 ml/animal.
High dosage group: intraperitoneal injection of artemether at 150 ml/kg.
Middle dosage group: intraperitoneal injection of artemether at 100 ml/kg.
Low dosage group: intraperitoneal injection of artemether at 50 ml/kg.
Nude mice were subjected to a 3.0Gy whole-body irradiation, after subcutaneous inoculation of the K562 cells. One week after inoculation, nude mice with visible tumors were divided into the following 5 groups each consisting of 6 animals. The following dosages were administered for 3 continuous weeks, with 5 doses per week, a total of 15 doses.
Positive control group: intraperitoneal injection of cyclophosphamide at 10 ml/kg.
High dosage group: intraperitoneal injection of artemether at 100 ml/kg.
Middle dosage group: intraperitoneal injection of artemether at 60 ml/kg.
Low dosage group: intraperitoneal injection of artemether at 40 ml/kg.
Nude mice were subjected to a 3.0Gy whole-body irradiation, after subcutaneous inoculation of the K562 cells. One week after inoculation, nude mice with visible tumors were divided into the following 5 groups each consisting of 6 nude mice.
Model control group: intraperitoneal injection of 20% solution of excipient at 0.2ml/animal. The dosage was administered for 3 weeks, with 7 doses per week, a total of 21 doses.
Positive control group: intraperitoneal injection of cyclophosphamide at 10 ml/kg. The dosage was administered for 3 weeks, with 7 doses per week, a total of 21 doses.
High dosage group: intraperitoneal injection of artemether at 100 ml/kg. The dosage was administered for 3 weeks, with 5 doses per week, a total of 15 doses.
Middle dosage group: intraperitoneal injection of artemether at 60 ml/kg. The dosage was administered for 3 weeks, with 7 doses per week, a total of 21 doses.
Low dosage group: intraperitoneal injection of artemether at 40 ml/kg. The dosage was administered for 3 weeks, with 7 doses per week, a total of 21 doses.

[1] = experiment 1, 15 doses, 4 weeks after inoculation
[2] = experiment 2, 21 doses, 4 weeks after inoculation

O=P1(N(CCCl)CCCl)NCCCO1 (stereo not drawn) [Cyclophosphamide, cyclophosphamide]
tumor sizes (experiment 1, 15 doses in 3 weeks, 1 week after inoculation): 48.1±10.9 mm3 | tumor sizes (experiment 1, 15 doses in 3 weeks, 2 weeks after inoculation): 104.9±60.3 mm3 | tumor sizes (experiment 1, 15 doses in 3 weeks, 3 weeks after inoculation): 373.7±319.9 mm3 | tumor sizes (experiment 1, 15 doses in 3 weeks, 4 weeks after inoculation): 799.0±571.3 mm3 | tumor mass [1]: 651.7 ± 544.3 mg | tumor sizes (experiment 2, 21 doses in 3 weeks, 1 week after inoculation): 30.7±10.9 mm3 | tumor sizes (experiment 2, 21 doses in 3 weeks, 2 weeks after inoculation): 77.3±49.8 mm3 | tumor sizes (experiment 2, 21 doses in 3 weeks, 3 weeks after inoculation): 203.1 ±94.7 mm3 | tumor sizes (experiment 2, 21 doses in 3 weeks, 4 weeks after inoculation): 327.0±206.8 mm3 | tumor mass [2]: 241.7 ± 176.8 mg | inhibition ratio [1]: 39.2% | inhibition ratio [2]: 83.3%
